ChEMBL document CHEMBL3400105, “Discovery of novel pyrazolopyrimidinone analogs as potent inhibitors of phosphodiesterase type-5” (Bioorg Med Chem, 2015)
In brackets after ≈: the same amount, converted by molar mass. Values belong to the molecule of their own block, whether it stands above or below them.

Tests used:
[1] = molecular target: T1, cGMP-specific 3',5'-cyclic phosphodiesterase (Homo sapiens, UniProt O76074)
CYP2C9 = CYP2C9 (Homo sapiens, UniProt P11712); assay: Inhibition of CYP2C9 (unknown origin) at 10 uM; format: ADME
[2] = Passive permeability across apical to basolateral side in human Caco2 cells; format: ADME, cell-based
[3] = molecular target: High affinity cAMP-specific and IBMX-insensitive 3',5'-cyclic phosphodiesterase 8A (Homo sapiens, UniProt O60658); assay: Inhibition of GST-tagged recombinant human PDE8A1
Sequence of High affinity cAMP-specific and IBMX-insensitive 3',5'-cyclic phosphodiesterase 8A (O60658 whole entry): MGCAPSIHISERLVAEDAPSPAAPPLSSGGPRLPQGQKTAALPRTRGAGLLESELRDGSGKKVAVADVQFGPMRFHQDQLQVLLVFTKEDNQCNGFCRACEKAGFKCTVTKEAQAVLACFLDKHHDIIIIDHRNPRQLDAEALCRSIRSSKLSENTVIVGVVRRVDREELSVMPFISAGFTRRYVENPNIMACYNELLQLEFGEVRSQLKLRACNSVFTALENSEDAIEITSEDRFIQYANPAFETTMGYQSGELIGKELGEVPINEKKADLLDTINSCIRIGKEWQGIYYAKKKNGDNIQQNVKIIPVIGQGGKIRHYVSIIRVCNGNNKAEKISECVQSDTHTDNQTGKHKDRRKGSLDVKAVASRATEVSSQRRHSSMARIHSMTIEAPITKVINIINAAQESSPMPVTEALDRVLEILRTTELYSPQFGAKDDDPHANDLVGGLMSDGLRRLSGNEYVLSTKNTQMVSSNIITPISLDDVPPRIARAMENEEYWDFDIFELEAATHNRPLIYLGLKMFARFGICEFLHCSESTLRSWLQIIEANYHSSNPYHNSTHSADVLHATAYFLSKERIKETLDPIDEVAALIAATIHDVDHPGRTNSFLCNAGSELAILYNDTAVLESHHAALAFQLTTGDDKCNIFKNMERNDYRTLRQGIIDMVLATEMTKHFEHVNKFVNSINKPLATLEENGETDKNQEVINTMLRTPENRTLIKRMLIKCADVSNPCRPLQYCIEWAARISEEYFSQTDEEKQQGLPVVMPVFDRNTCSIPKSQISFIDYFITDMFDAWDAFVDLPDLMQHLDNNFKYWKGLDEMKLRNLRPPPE

[4] = molecular target: 3',5'-cyclic-AMP phosphodiesterase 4A (Homo sapiens, UniProt P27815); assay: Inhibition of PDE4A1 (unknown origin) using fluorescently labeled cAMP substrate by fluorescence polarization assay
[5] = Cmax in Swiss mouse at 10 mg/kg, po; format: ADME, organism-based; parameters: dose 10 mg/kg, route oral; conditions: in vivo
[6] = Dissociation constant, pKa of the compound; format: physicochemical
[7] = Solubility in water; format: physicochemical
[8] = Lipophilicity, log P of the compound; format: physicochemical; conditions: octanol/water
CYP3A4 = CYP3A4 (Homo sapiens, UniProt P08684); assay: Inhibition of CYP3A4 (unknown origin) at 10 uM; format: ADME
Sequence of CYP3A4 (P08684 whole entry): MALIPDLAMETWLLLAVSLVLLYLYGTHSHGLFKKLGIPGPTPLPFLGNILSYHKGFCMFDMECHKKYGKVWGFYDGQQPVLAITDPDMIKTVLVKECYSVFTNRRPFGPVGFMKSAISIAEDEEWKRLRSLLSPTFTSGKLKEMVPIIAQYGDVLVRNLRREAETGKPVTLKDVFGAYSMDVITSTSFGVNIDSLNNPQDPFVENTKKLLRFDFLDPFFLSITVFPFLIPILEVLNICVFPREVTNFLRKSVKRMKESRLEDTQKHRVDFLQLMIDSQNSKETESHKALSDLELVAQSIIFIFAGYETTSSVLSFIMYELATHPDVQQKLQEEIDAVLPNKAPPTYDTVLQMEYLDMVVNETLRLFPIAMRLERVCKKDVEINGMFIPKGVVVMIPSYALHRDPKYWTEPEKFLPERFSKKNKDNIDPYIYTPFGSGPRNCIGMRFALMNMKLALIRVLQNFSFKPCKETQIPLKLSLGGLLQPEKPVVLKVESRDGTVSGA

[9] = Apparent oral clearance in Swiss mouse at 10 mg/kg, po; format: ADME, organism-based; parameters: dose 10 mg/kg, route oral; conditions: in vivo
in vitro = conditions: human, Caco-2
[10] = AUC (0 to infinity) in Swiss mouse at 10 mg/kg, po; format: ADME, organism-based; parameters: time infinity, dose 10 mg/kg, route oral; conditions: plasma
[11] = Solubility in PBS; format: physicochemical
[12] = molecular target: Dual 3',5'-cyclic-AMP and -GMP phosphodiesterase 11A (Homo sapiens, UniProt Q9HCR9); assay: Inhibition of GST-tagged recombinant human PDE11A4
Sequence of Dual 3',5'-cyclic-AMP and -GMP phosphodiesterase 11A (Q9HCR9 whole entry): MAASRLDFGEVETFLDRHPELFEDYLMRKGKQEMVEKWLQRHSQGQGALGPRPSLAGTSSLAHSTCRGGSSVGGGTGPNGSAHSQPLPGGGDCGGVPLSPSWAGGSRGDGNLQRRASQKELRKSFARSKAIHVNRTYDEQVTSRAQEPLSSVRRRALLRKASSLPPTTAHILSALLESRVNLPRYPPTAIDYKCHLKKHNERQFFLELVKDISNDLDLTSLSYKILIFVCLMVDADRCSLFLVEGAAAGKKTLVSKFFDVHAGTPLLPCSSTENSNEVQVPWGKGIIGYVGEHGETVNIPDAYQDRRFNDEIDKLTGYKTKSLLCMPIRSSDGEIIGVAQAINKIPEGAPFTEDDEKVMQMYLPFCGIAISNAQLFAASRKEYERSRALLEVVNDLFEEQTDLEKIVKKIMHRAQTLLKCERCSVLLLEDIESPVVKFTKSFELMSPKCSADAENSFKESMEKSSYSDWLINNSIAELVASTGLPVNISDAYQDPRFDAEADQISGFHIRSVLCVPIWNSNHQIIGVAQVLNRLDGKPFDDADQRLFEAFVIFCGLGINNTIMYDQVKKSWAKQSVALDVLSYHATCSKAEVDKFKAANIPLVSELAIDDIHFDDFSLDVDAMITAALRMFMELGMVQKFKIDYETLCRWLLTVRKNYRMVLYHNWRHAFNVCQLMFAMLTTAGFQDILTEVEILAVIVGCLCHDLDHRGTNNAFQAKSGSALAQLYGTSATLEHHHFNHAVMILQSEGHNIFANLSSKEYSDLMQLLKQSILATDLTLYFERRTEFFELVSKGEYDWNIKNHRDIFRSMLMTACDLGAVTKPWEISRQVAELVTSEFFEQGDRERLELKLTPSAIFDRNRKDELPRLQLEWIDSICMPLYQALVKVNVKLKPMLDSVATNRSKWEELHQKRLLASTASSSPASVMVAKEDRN

[13] = Tmax in Balbc mouse at 1 mg/kg, ip; format: ADME, organism-based; parameters: dose 1 mg/kg, route intraperitoneal; conditions: in vivo
[14] = molecular target: Cone cGMP-specific 3',5'-cyclic phosphodiesterase subunit alpha' (Homo sapiens, UniProt P51160); assay: Inhibition of PDE6C (unknown origin)
[15] = Solubility in simulated intestinal fluid; format: ADME
[16] = AUC (0 to time) in Swiss mouse at 10 mg/kg, po; format: ADME, organism-based; parameters: dose 10 mg/kg, route oral; conditions: plasma
[17] = molecular target: cAMP and cAMP-inhibited cGMP 3',5'-cyclic phosphodiesterase 10A (Homo sapiens, UniProt Q9Y233); assay: Inhibition of PDE10A1 (unknown origin) using fluorescently labeled cAMP substrate by fluorescence polarization assay
Sequence of cAMP and cAMP-inhibited cGMP 3',5'-cyclic phosphodiesterase 10A (Q9Y233 whole entry): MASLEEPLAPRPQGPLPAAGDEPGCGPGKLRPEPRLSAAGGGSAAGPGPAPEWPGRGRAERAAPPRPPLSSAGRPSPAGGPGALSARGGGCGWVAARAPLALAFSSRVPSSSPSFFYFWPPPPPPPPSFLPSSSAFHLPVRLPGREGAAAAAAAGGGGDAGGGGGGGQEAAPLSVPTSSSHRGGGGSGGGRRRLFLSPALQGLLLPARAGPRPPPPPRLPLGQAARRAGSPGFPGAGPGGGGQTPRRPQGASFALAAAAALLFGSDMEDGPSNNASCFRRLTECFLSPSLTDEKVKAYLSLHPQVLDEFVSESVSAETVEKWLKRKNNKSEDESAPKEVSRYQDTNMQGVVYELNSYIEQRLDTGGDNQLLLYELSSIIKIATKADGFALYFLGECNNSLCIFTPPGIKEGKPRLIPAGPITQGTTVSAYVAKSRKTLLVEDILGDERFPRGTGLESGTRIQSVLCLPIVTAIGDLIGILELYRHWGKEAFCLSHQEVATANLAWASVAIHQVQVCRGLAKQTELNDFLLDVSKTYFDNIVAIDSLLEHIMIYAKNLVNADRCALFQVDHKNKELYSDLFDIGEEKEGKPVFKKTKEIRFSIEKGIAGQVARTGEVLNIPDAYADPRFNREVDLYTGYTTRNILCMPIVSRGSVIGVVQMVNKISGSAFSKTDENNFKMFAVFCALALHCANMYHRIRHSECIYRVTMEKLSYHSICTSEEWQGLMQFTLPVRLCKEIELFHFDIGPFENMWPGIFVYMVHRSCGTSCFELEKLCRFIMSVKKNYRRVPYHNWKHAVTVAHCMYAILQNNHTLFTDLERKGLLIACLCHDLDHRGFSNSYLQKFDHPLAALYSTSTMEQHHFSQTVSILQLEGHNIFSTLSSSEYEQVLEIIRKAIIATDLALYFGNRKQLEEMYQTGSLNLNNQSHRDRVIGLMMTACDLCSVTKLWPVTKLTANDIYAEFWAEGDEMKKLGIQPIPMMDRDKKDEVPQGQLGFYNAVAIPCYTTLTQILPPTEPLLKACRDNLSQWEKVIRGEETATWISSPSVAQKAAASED

[18] = Fraction unbound in whole blood (unknown origin); format: ADME, tissue-based
[19] = molecular target: High affinity 3',5'-cyclic-AMP phosphodiesterase 7A (Homo sapiens, UniProt Q13946); assay: Inhibition of GST-tagged recombinant human PDE7A1
Sequence of High affinity 3',5'-cyclic-AMP phosphodiesterase 7A (Q13946 whole entry): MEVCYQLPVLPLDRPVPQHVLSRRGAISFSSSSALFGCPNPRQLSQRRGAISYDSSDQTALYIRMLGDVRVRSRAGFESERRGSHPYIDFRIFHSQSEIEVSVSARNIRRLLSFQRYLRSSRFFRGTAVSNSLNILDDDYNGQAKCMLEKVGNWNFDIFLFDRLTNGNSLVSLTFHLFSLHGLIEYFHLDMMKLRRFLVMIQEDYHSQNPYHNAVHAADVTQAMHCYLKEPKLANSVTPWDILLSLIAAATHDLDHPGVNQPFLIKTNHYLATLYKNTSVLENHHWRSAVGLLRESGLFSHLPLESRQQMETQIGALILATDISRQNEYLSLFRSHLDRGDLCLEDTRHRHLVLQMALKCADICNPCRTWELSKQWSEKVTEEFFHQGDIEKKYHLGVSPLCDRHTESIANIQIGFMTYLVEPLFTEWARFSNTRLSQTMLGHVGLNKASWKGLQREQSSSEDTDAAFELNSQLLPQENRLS

Plasma = assay: Initial plasma concentration in Swiss mouse at 10 mg/kg, po; format: ADME, organism-based; parameters: dose 10 mg/kg, route oral; conditions: in vivo
[20] = Tmax in Swiss mouse at 10 mg/kg, po; format: ADME, organism-based; parameters: dose 10 mg/kg, route oral; conditions: in vivo
[21] = Half life in Swiss mouse at 10 mg/kg, po; format: ADME, organism-based; parameters: dose 10 mg/kg, route oral; conditions: in vivo
[22] = Cmax in Balbc mouse at 1 mg/kg, ip; format: ADME, organism-based; parameters: dose 1 mg/kg, route intraperitoneal; conditions: in vivo
[23] = Solubility in simulated gastric fluid; format: ADME, Stomach
[24] = molecular target: High affinity cGMP-specific 3',5'-cyclic phosphodiesterase 9A (Homo sapiens, UniProt O76083); assay: Inhibition of GST-tagged recombinant human PDE9A2
Sequence of High affinity cGMP-specific 3',5'-cyclic phosphodiesterase 9A (O76083 whole entry): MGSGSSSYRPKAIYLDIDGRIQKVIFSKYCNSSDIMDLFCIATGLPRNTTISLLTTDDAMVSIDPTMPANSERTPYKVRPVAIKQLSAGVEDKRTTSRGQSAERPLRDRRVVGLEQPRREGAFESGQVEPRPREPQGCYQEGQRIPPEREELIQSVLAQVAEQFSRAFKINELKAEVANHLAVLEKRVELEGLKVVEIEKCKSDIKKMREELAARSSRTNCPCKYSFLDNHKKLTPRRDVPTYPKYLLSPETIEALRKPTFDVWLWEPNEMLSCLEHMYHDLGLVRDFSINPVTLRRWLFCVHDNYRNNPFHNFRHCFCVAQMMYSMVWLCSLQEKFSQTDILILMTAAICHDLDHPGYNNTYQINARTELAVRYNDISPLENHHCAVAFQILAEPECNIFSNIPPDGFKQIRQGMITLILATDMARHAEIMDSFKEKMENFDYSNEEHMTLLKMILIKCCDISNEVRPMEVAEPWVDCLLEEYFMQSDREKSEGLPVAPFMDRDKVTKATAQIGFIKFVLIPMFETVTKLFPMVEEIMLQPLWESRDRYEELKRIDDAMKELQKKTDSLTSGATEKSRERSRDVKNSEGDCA

[25] = Plasma protein binding (unknown origin); format: ADME, cell-free; conditions: read-out: PPB (converted)
[26] = molecular target: Dual specificity calcium/calmodulin-dependent 3',5'-cyclic nucleotide phosphodiesterase 1A (Homo sapiens, UniProt P54750); assay: Inhibition of PDE1A1 (unknown origin) using fluorescently labeled cAMP substrate by fluorescence polarization assay
Sequence of Dual specificity calcium/calmodulin-dependent 3',5'-cyclic nucleotide phosphodiesterase 1A (P54750 whole entry): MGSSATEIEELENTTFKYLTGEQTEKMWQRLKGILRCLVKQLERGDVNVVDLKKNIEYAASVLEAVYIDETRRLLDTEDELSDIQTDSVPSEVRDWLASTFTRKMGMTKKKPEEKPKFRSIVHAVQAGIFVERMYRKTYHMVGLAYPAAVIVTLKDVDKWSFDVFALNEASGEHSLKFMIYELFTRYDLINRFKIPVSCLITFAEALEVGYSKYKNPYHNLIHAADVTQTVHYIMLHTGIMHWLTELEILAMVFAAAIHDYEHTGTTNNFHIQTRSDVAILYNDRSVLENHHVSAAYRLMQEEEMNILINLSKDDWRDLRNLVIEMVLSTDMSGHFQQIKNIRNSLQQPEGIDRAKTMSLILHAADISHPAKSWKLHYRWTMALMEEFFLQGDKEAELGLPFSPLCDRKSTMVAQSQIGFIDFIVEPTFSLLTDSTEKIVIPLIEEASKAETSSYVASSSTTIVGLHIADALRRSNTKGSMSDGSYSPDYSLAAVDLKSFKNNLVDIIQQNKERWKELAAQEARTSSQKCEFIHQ

[27] = Passive permeability across basolateral to apical side in human Caco2 cells; format: ADME, cell-based; conditions: Caco-2, read-out: permeability
[28] = Apparent oral volume of distribution in Balbc mouse at 1 mg/kg, iv; format: ADME, organism-based; parameters: dose 1 mg/kg, route oral; conditions: in vivo
[29] = AUC (0 to infinity) in Balbc mouse at 1 mg/kg, iv; format: ADME, organism-based; parameters: time infinity, dose 1 mg/kg, route intravenous; conditions: plasma
[30] = AUC (0 to time) in Balbc mouse at 1 mg/kg, ip; format: ADME, organism-based; parameters: dose 1 mg/kg, route intraperitoneal; conditions: plasma
[31] = molecular target: T1, cGMP-specific 3',5'-cyclic phosphodiesterase; assay: Inhibition of PDE5A1 (unknown origin)
Oryctolagus cuniculus = assay: Induction of penile erection in conscious rabbit model assessed as area under curve of length of uncovered penile mucosa at 3 mg/kg, iv into ear vain
[32] = AUC (0 to time) in Balbc mouse at 1 mg/kg, iv; format: ADME, organism-based; parameters: dose 1 mg/kg, route intravenous; conditions: plasma
[33] = Lipophilicity, log D of the compound; format: physicochemical; conditions: octanol/water
[34] = molecular target: cGMP-dependent 3',5'-cyclic phosphodiesterase (Homo sapiens, UniProt O00408); assay: Inhibition of PDE2A1 (unknown origin) using fluorescently labeled cAMP substrate by fluorescence polarization assay
[35] = Apparent oral clearance in Balbc mouse at 1 mg/kg, iv; format: ADME, organism-based; parameters: dose 1 mg/kg, route oral; conditions: in vivo
[36] = Cmax in Balbc mouse at 1 mg/kg, iv; format: ADME, organism-based; parameters: dose 1 mg/kg, route intravenous; conditions: in vivo
[37] = Metabolic stability in mouse liver microsomes assessed as metabolized drug; format: ADME; conditions: read-out: Drug metabolism
[38] = Apparent oral volume of distribution in Swiss mouse at 10 mg/kg, po; format: ADME, organism-based; parameters: dose 10 mg/kg, route oral; conditions: in vivo
[39] = molecular target: cGMP-inhibited 3',5'-cyclic phosphodiesterase 3A (Homo sapiens, UniProt Q14432); assay: Inhibition of PDE3A (unknown origin) using fluorescently labeled cAMP substrate by fluorescence polarization assay
[40] = AUC (0 to infinity) in Balbc mouse at 1 mg/kg, ip; format: ADME, organism-based; parameters: time infinity, dose 1 mg/kg, route intraperitoneal; conditions: plasma

IC50 [1]: 2.6 nM
SMILES: CCCc1nn(C)c2c(=O)[nH]c(-c3cc(S(=O)(=O)NCCCN4CCOCC4)ccc3OCC)nc12

IC50 [1]: 1.6 nM
SMILES: CCCc1nn(C)c2c(=O)[nH]c(-c3cc(S(=O)(=O)NCCN4CCOCC4)ccc3OCC)nc12

inhibition at 10 µM (CYP2C9): 56%
Papp A→B ([2]; Caco-2, read-out: permeability): 9.1 ×10⁻⁶ cm/s
IC50 [3]: > 10000 nM
IC50 [4]: 3700 nM
Cmax [5]: 380 ng/mL
pKa [6]: 5.22
solubility [7]: 20 µM (≈ 9.83 µg/mL)
logP [8]: 2.73
inhibition at 10 µM (CYP3A4): 50%
CL/F [9]: 1070 mL/min/kg
efflux ratio (in vitro): 6
AUC(0-inf) [10]: 156 ng·h/mL
solubility [11]: 20 µM (≈ 9.83 µg/mL)
IC50 [12]: 1400 nM
Tmax [13]: 30 min
IC50 [14]: 5.2 nM
solubility [15]: 10 µM (≈ 4.92 µg/mL)
AUC [16]: 134 ng·h/mL
IC50 [17]: 2000 nM
fraction unbound [18]: 0.023
IC50 ([19]; read-out: IC50): > 10000 nM
C0 (Plasma): 556 ng/mL
Tmax [20]: 4.98 min
half-life [21]: 48 min
Cmax [22]: 105 ng/mL
IC50 [1]: 1.5 nM
solubility [23]: 80 µM (≈ 39.3 µg/mL)
IC50 [24]: 3800 nM
fraction unbound [25]: 0.023
IC50 [26]: 62 nM
Papp B→A [27]: 54.4 ×10⁻⁶ cm/s
Vd/F [28]: 1.65 L/kg
AUC(0-inf) [29]: 81.8 ng·h/mL
AUC [30]: 69.4 ng·h/mL
IC50 [31]: 1.5 nM
AUC [32]: 80 ng·h/mL
logD [33]: 2.73
IC50 [34]: 560 nM
CL/F [35]: 204 mL/min/kg
Cmax [36]: 221 ng/mL
metabolised [37]: > 95%
Vd/F [38]: 76.8 L/kg
IC50 [39]: > 10000 nM
AUC(0-inf) [40]: 71 ng·h/mL
SMILES: CCCc1nn(C)c2c(=O)[nH]c(-c3cc(S(=O)(=O)NCCCCCCO)ccc3OCC)nc12
AUC (Oryctolagus cuniculus): 432

IC50 [1]: 1.7 nM
SMILES: CCCc1nn(C)c2c(=O)[nH]c(-c3cc(S(=O)(=O)NCCCCCO)ccc3OCC)nc12

permeability ([2]; Caco-2): 37.9 ×10⁻⁶ cm/s
pKa [6]: 4.86
logP [8]: 2.58
fraction unbound [18]: 0.066
IC50 [19]: 22000 nM
fraction unbound [25]: 0.04
IC50 [26]: 600 nM
Papp B→A [27]: 45.5 ×10⁻⁶ cm/s
logD [33]: 2.69
metabolised [37]: 90%
SMILES: CCCc1nn(C)c2c(=O)[nH]c(-c3cc(S(=O)(=O)N4CCN(C)CC4)ccc3OCC)nc12
AUC (Oryctolagus cuniculus): 305

IC50 [1]: 32 nM
SMILES: CCCc1nn(C)c2c(=O)[nH]c(-c3cc(S(=O)(=O)NCCN(CC)CC)ccc3OCC)nc12

IC50 [1]: 14 nM
SMILES: CCCc1nn(C)c2c(=O)[nH]c(-c3cc(S(=O)(=O)NCCCN(C)C)ccc3OCC)nc12

IC50 [1]: 13 nM
SMILES: CCCc1nn(C)c2c(=O)[nH]c(-c3cc(S(=O)(=O)NCCc4c[nH]c5ccccc45)ccc3OCC)nc12

IC50 [1]: 3.3 nM
SMILES: CCCc1nn(C)c2c(=O)[nH]c(-c3cc(S(=O)(=O)NCc4ccc(OC)c(F)c4)ccc3OCC)nc12

IC50 [1]: 16 nM
SMILES: CCCc1nn(C)c2c(=O)[nH]c(-c3cc(S(=O)(=O)NCCN4CCCCC4)ccc3OCC)nc12

IC50 [1]: 12 nM
SMILES: CCCCCCNS(=O)(=O)c1ccc(OCC)c(-c2nc3c(CCC)nn(C)c3c(=O)[nH]2)c1

IC50 [1]: 3.9 nM
SMILES: CCCCCCCNS(=O)(=O)c1ccc(OCC)c(-c2nc3c(CCC)nn(C)c3c(=O)[nH]2)c1

IC50 [1]: 1.9 nM
SMILES: CCCc1nn(C)c2c(=O)[nH]c(-c3cc(S(=O)(=O)NCCCCO)ccc3OCC)nc12

IC50 [1]: 3.4 nM
SMILES: CCCc1nn(C)c2c(=O)[nH]c(-c3cc(S(=O)(=O)NCCCO)ccc3OCC)nc12
